Source: the NIST ThermoML archive (doi:10.1016/j.jct.2011.04.006)
Several values for one entry are separate records, joined by “and”; a condition that tells them apart may be missing. Equal entries are not always repeated. Numbers after ± are expanded uncertainties.

How the values were obtained:
[1] = excess molar enthalpy (molar enthalpy of mixing); xn = mol fraction of the nth substance listed; conditions: 298.15 K, 101 kPa, Liquid, Flow calorimetry
[2] = 298.15 K; 101.33 kPa; Liquid; Vibrating tube method

CCC(C)(C)C [2,2-dimethylbutane] + CCCOCCC
[1]
Conditions | excess molar enthalpy [kcal/mol]
x2 = 0.05 | 0.00906 ± 0.000287
x2 = 0.1 | 0.0163 ± 0.000359
x2 = 0.15 | 0.0214 ± 0.000406
x2 = 0.2 | 0.0261 ± 0.000454
x2 = 0.2499 | 0.0298 ± 0.000478
x2 = 0.2998 | 0.0328 ± 0.000526
x2 = 0.3499 | 0.0349 ± 0.00055
x2 = 0.3998 | 0.036 ± 0.00055
x2 = 0.4501 | 0.037 ± 0.000574
x2 = 0.4995 | 0.037 ± 0.000574
x2 = 0.5497 | 0.0361 ± 0.00055
x2 = 0.6001 | 0.0347 ± 0.00055
x2 = 0.65 | 0.0325 ± 0.000526
x2 = 0.7001 | 0.0298 ± 0.000478
x2 = 0.7503 | 0.0265 ± 0.000454
x2 = 0.8001 | 0.0226 ± 0.000406
x2 = 0.85 | 0.0179 ± 0.000359
x2 = 0.9 | 0.0127 ± 0.000311
x2 = 0.95 | 0.00676 ± 0.000263

CC(C)C(C)C [2,3-dimethylbutane]
Conditions | mass density [kg/m3]
[2] | 657.023 ± 0.26

CC(C)C(C)C [2,3-dimethylbutane] + CCCCOCCCC
[1]
Conditions | excess molar enthalpy [kcal/mol]
x2 = 0.05 | 0.00607 ± 0.000239
x2 = 0.1 | 0.0104 ± 0.000287
x2 = 0.1501 | 0.0141 ± 0.000311
x2 = 0.2 | 0.0172 ± 0.000335
x2 = 0.2502 | 0.0196 ± 0.000359
x2 = 0.3 | 0.0215 ± 0.000382
x2 = 0.3499 | 0.0228 ± 0.000406
x2 = 0.3998 | 0.0238 ± 0.000406
x2 = 0.4501 | 0.0243 ± 0.00043
x2 = 0.5 | 0.0243 ± 0.00043
x2 = 0.5002 | 0.0242 ± 0.000406
x2 = 0.5493 | 0.0239 ± 0.000406
x2 = 0.5999 | 0.0229 ± 0.000406
x2 = 0.6501 | 0.0217 ± 0.000382
x2 = 0.7 | 0.02 ± 0.000382
x2 = 0.75 | 0.0181 ± 0.000359
x2 = 0.8001 | 0.0159 ± 0.000335
x2 = 0.85 | 0.0133 ± 0.000311
x2 = 0.9001 | 0.0101 ± 0.000263
x2 = 0.95 | 0.00672 ± 0.000239

CC(C)C(C)C [2,3-dimethylbutane] + CCCOCCC
[1]
Conditions | excess molar enthalpy
x2 = 0.05 | 0.00846 ± 0.000287 kcal/mol
x2 = 0.1 | 0.0152 ± 0.000335 kcal/mol
x2 = 0.15 | 0.0206 ± 0.000382 kcal/mol
x2 = 0.2001 | 0.0252 ± 0.00043 kcal/mol
x2 = 0.25 | 0.0288 ± 0.000478 kcal/mol
x2 = 0.3001 | 0.0321 ± 0.000502 kcal/mol
x2 = 0.3499 | 0.0346 ± 0.00055 kcal/mol
x2 = 0.4 | 0.0364 ± 0.000574 kcal/mol
x2 = 0.4498 | 0.0374 ± 0.000574 kcal/mol
x2 = 0.4998 | 0.0377 kcal/mol and 0.0376 kcal/mol
x2 = 0.55 | 0.0372 ± 0.000574 kcal/mol
x2 = 0.5999 | 0.0359 ± 0.00055 kcal/mol
x2 = 0.6501 | 0.034 ± 0.000526 kcal/mol
x2 = 0.7 | 0.0314 ± 0.000502 kcal/mol
x2 = 0.7502 | 0.028 ± 0.000478 kcal/mol
x2 = 0.8 | 0.0242 ± 0.00043 kcal/mol
x2 = 0.85 | 0.0193 ± 0.000382 kcal/mol
x2 = 0.9 | 0.0138 ± 0.000335 kcal/mol
x2 = 0.95 | 0.0075 ± 0.000287 kcal/mol

CCC(C)(C)C [2,2-dimethylbutane]
Conditions | mass density [kg/m3]
[2] | 644.588 ± 0.26

CCC(C)(C)C [2,2-dimethylbutane] + CCCCOCCCC
[1]
Conditions | excess molar enthalpy [kcal/mol]
x2 = 0.05 | 0.0065 ± 0.000263
x2 = 0.1 | 0.0112 ± 0.000287
x2 = 0.1499 | 0.015 ± 0.000311
x2 = 0.2001 | 0.018 ± 0.000359
x2 = 0.2502 | 0.0205 ± 0.000382
x2 = 0.2996 | 0.0224 ± 0.000406
x2 = 0.3501 | 0.0237 ± 0.000406
x2 = 0.3998 | 0.0246 ± 0.00043
x2 = 0.4497 | 0.0249 ± 0.00043
x2 = 0.5003 | 0.0246 ± 0.00043
x2 = 0.5004 | 0.0245 ± 0.00043
x2 = 0.5499 | 0.0239 ± 0.000406
x2 = 0.6002 | 0.0228 ± 0.000406
x2 = 0.6498 | 0.0213 ± 0.000382
x2 = 0.6999 | 0.0197 ± 0.000359
x2 = 0.7501 | 0.0173 ± 0.000335
x2 = 0.8 | 0.0149 ± 0.000311
x2 = 0.85 | 0.0119 ± 0.000287
x2 = 0.9 | 0.0088 ± 0.000263
x2 = 0.95 | 0.00528 ± 0.000239

CCCOCCC [dipropyl ether]
Conditions | mass density [kg/m3]
[2] | 741.977 ± 0.24
